{"source": "patent US4499082A", "about": "“α-Aminoboronic acid peptides” (E. I. Du Pont de Nemours and Company, priority 1983, dated 1985)", "key": {"neutrophil elastase [1]": {"biological_target": "T1, neutrophil elastase (Homo sapiens, UniProt P08246)", "T1 sequence (P08246 30-267)": "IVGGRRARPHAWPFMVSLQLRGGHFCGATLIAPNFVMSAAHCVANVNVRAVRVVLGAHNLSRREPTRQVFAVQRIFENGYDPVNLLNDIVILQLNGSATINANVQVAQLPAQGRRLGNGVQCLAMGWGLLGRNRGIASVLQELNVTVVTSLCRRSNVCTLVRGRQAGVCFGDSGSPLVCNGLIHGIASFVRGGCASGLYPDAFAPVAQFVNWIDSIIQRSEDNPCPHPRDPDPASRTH", "experiment": "Inhibition of neutrophil elastase, additional peptide inhibitors preincubated in phosphate buffer (Table 3)", "type": "biochemical", "design": "Neutrophil elastase was prepared by the procedure described by Baugh. et al; from tissue", "details": "Conc. 1.0 × 10^-7 M", "description": "Additional peptide inhibitors were evaluated by a procedure similar to that described above. Stock solutions of inhibitors (1.00 mM) were prepared in dimethylsulfoxide and compounds were diluted to 0.10 mM with […], pH 7.5, yielding the free boronic acid. After incubation for one hour at about 23°, inhibitors were added to assay solutions (2.00 mL) consisting of […] MeOSuc-Ala-AlaProVal-p-nitroanilide in 0.10M Hepes buffer, pH 7.5, containing 0.50M NaCl. Assays were initiated by addition of 0.50 μg neutrophil elastase. Control assays without inhibitor indicated an initial velocity of 0.0195 min^-1. The value \"k\" in Table 3, below, is an estimate of the first order rate constant for time-dependent inhibition, as described above for MeOSuc-AlaAlaPro-Boroval-OH (Table 1)."}, "neutrophil elastase [2]": {"biological_target": "T1, neutrophil elastase", "experiment": "Kinetic constants for interaction with human neutrophil elastase (Table 1)", "type": "biochemical", "design": "Neutrophil elastase was prepared by the procedure described by Baugh. et al; from tissue", "description": "A more extensive evaluation of the kinetic constants for interaction of human neutrophil elastase with MeOSuc-AlaAlaPro-Boroval-OH were determined by methods substantially similar to those disclosed by Schloss, et al., Biochemistry 19:2358 (1980), who describe the following equation describing reversible, tight binding inhibition: [drawing 13]\nAs determined herein, Ki (initial)=k2 /k1; Ki (final)=(k2 /k1)k4 /(k3 +k4); and […]; E=[Enzyme]; I=[inhibitor]; EI and EI*=[enzyme-inhibitor complexes].\nKi (initial) was determined from initial velocity studies, according to the method of Lineweaver and Burk. Substrate concentration was varied from 0.80-0.04 mM, and concentration of inhibitor (MeOSuc-AlaAlaPro-Boroval-OH) was 200 nM. Observed inhibition appeared to be competitive, since double reciprocal plots of initial velocity vs. substrate concentration intercepted the y-axis at the same point.\nThe data were fitted to the following equation: P=P0 +(vi -vf)/k+vf t+(vf -vi)e^-kt /k. P is the concentration of product at time t, vi is the initial velocity, vf is the final steady state velocity, k is the first order rate constant and P0 is the concentration of product at t=0. Values of Ki (initial) and Ki (final) were then determined from plots of velocity^-1 vs. concentration of inhibitor using the method described by Dixon, Biochem. J. 55:170 (1953)."}, "[3]": {"details": "plasma incubated at 4°", "quoted_text": "The stability of inhibitory capacity provided by MeOSuc-AlaAlaPro-Boroval-OH in plasma was determined by incubating samples of plasma containing inhibitor at 4° for 24 hours, followed by assays for inhibitory capacity conducted as above."}, "[4]": {"details": "hamster, in vivo", "quoted_text": "Plasma, 5 μL, containing various concentrations of inhibitor, or a dilution thereof, was incubated with 10 μL of a stock solution of 1.15×10^-5 M pancreatic elastase, in a final volume of 0.40 mL 0.10M Hepes buffer, pH 7.5, containing 0.5M NaCl at 25°. After 5 minutes incubation, 1.60 mL additional buffer and 20 μL of a 0.20M MeOSuc-AlaAlaPro-Val-pNA solution in dimethylsulfoxide was added and the increase in absorbance at 405 nm monitored. Levels of inhibitor were determined from a standard curve of % activity vs. inhibitor concentration.\nFIG. 1 illustrates results of experiments in which hamsters, 50 days old, weighing 80-90 g, were administered MeOSu-AlaAlaPro-Boroval-pinacol in 1.0 mL saline at intraperitoneal dosage levels of 400, 200 and 100 mg/kg. At the indicated time intervals, blood samples (50-100 μL) were withdrawn by cardiac puncture from animals lightly anesthetized with ether, and elastase inhibitor levels determined. Normal plasma EIC is 14 μM."}, "α-chymotrypsin": {"biological_target": "T2, α-chymotrypsin (Bos taurus, UniProt P00766)", "T2 construct": "purchased", "details": "competitive inhibitor; Lindquist et al.; cited from earlier work"}, "[5]": {"system": "experimentally-induced emphysema in hamsters", "details": "intraperitoneally; cited from earlier work"}, "chymotrypsin": {"biological_target": "chymotrypsin (Bos taurus, UniProt P00766)", "details": "Matteson et al.; cited from earlier work"}, "hamsters": {"system": "hamsters", "details": "intratracheal administration; cited from earlier work"}, "neutrophil elastase [6]": {"biological_target": "T1, neutrophil elastase", "details": "cited from earlier work"}, "emphysema in mice": {"system": "emphysema in mice", "details": "cited from earlier work"}, "neutrophil elastase [7]": {"biological_target": "T1, neutrophil elastase", "experiment": "Inhibition of neutrophil elastase (Table 2)", "type": "biochemical", "design": "Neutrophil elastase was prepared by the procedure described by Baugh. et al; from tissue", "details": "inhibitor 5,000 nM", "description": "Neutrophil elastase was prepared by the procedure described by Baugh. et al., Biochemistry 15:836 […]. Enzyme assays were conducted substantially according to the procedure disclosed by Nakajima, et al., J. Biol. […] Inhibitors were evaluated by comparing enzymatic activity measured in the presence and absence of inhibitor."}, "Bovine α-chymotrypsin": {"biological_target": "T3, Bovine α-chymotrypsin (Bos taurus, UniProt P00766)", "T3 construct": "purchased", "experiment": "Inhibition of α-chymotrypsin", "type": "biochemical", "details": "inhibitor 100 nM; N.T (no detectable time dependence)", "description": "Bovine α-chymotrypsin, obtained from commercial sources, was used to prepare stock solutions. […] Reactions were initiated by the addition of 0.040 μg of enzyme and increases in absorbance were monitored spectrophotometrically at 405 nm at 25°."}, "[8]": {"biological_target": "Porcine pancreatic elastase (Sus scrofa, UniProt P00772)", "sequence (P00772 27-266)": "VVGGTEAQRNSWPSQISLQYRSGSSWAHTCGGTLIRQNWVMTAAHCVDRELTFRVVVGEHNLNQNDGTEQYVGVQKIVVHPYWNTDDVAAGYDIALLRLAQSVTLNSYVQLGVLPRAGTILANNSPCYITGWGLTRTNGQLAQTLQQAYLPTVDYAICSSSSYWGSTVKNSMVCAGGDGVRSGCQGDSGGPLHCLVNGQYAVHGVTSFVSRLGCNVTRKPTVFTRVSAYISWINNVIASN", "experiment": "Inhibition of pancreatic elastase", "type": "biochemical", "details": "inhibitor 5 × 10^4 nM", "description": "Porcine pancreatic elastase (9.8 U/mg.) was obtained from commercial sources. […] Reactions were initiated by addition of 0.5 μg of elastase in 0.020 mL of 0.020M sodium acetate buffer, pH 6.0, and hydrolysis of substrate was monitored spectrophotometrically at 405 nm at 25° C. Assay results are set forth in Table 4, below, expressed as percentages of activity of control mixtures to which no inhibitor was added: […]"}}, "note": "Where two headings read alike, the source gives them in different places.", "data": [{"compound": "COC(=O)CCC(=O)N[C@@H](C)C(=O)N[C@@H](C)C(=O)N1CCC[C@H]1C(=O)NC(B(O)O)C(C)C", "note": "(stereo partly drawn) [MeOSuc--Ala--Ala--Pro--Boroval--OH, MeOSuc-AlaAlaPro-Boroval-OH]", "values": [{"measurement": "% Initial Activity", "setting": "neutrophil elastase [1]", "value": 61, "unit": "%"}, {"measurement": "k, first order rate constant for time-dependent inhibition", "setting": "neutrophil elastase [1]", "value": 0.27, "unit": "min⁻¹"}, {"measurement": "Ki", "setting": "neutrophil elastase [2]; initial velocity studies, Lineweaver and Burk, inhibitor 200 nM, read-out: Ki Initial", "value": 150, "unit": "nM"}, {"measurement": "Ki", "setting": "neutrophil elastase [2]; progressive inhibition, Dixon plot, t = 0, inhibitor 30-300 nM, read-out: Ki Initial", "value": 91, "unit": "nM"}, {"measurement": "Ki", "setting": "neutrophil elastase [2]; progressive inhibition, Dixon plot, t = infinity, equilibrium, read-out: Ki Final", "value": 6.2, "unit": "nM"}, {"measurement": "% Activity, Plasma + Inhibitor", "setting": "[3]; t = 0 hr.", "value": 18.5, "unit": "%"}, {"measurement": "% Activity, Plasma + Inhibitor", "setting": "[3]; t = 48 hr.", "value": 17, "unit": "%"}]}, {"compound": "COC(=O)CCC(=O)N[C@@H](C)C(=O)N[C@@H](C)C(=O)N1CCC[C@H]1C(=O)NC(B1OC(C)(C)C(C)(C)O1)C(C)C", "note": "(stereo partly drawn) [MeOSuc--Ala--Ala--Pro--Boroval--pinacol, MeOSuc-AlaAlaPro-Boroval-pinacol]", "values": [{"measurement": "elevation of plasma EIC", "setting": "[4]", "value": "at least 10 fold"}]}, {"compound": "O=C(NCB(O)O)c1ccccc1", "note": "[N-benzoylaminomethaneboronic acid]", "values": [{"measurement": "Ki", "setting": "α-chymotrypsin", "value": "1000 to 4000", "unit": "nM"}]}, {"compound": "N-acetyl-L-alanyl-L-alanyl-L-prolyl-L-alanine chloromethyl ketone [Ac-Ala-Ala-Pro-AlaCH2 Cl]", "values": [{"measurement": "block of experimentally-induced emphysema", "setting": "[5]", "value": "effectively block experimentally-induced emphysema"}]}, {"compound": "CC(=O)N[C@@H](Cc1ccccc1)B(O)O", "note": "[(R)-1-acetamido-2-phenylethaneboronic acid]", "values": [{"measurement": "Ki", "setting": "chymotrypsin", "value": 4000, "unit": "nM"}]}, {"compound": "N-succinyl-L-alanyl-L-alanyl-L-prolyl-L-valine chloromethyl ketone [Suc-Ala-Ala-Pro-ValCH2 Cl]", "values": [{"measurement": "effectiveness", "setting": "hamsters", "value": "effective"}]}, {"compound": "N-methoxysuccinyl-L-alanyl-L-alanyl-L-prolyl-L-valine chloromethyl ketone [MeOSuc-Ala-Ala-Pro-ValCH2 Cl]", "values": [{"measurement": "concentration exhibiting inhibitory activity", "setting": "neutrophil elastase [6]", "value": 25, "unit": "µM"}, {"measurement": "effectiveness", "setting": "emphysema in mice; administered more than fifteen minutes prior to intrapulmonary instillation of elastase", "value": "ineffective"}, {"measurement": "treatment of emphysema", "setting": "emphysema in mice; given orally", "value": "effective agent in the treatment of emphysema"}]}, {"compound": "CC(C)(C)OC(=O)N[C@@H](Cc1ccccc1)C(=O)N1CCC[C@H]1C(=O)N[C@@H](Cc1ccccc1)B1OC(C)(C)C(C)(C)O1", "note": "[Boc--Phe--Pro--Borophe--pinacol, Boc-PhePro-Borophe-pinacol]", "values": [{"measurement": "% Activity", "setting": "neutrophil elastase [7]; 0.5 min", "value": 42, "unit": "%"}, {"measurement": "% Activity", "setting": "neutrophil elastase [7]; 2 min", "value": 23, "unit": "%"}, {"measurement": "% Activity", "setting": "neutrophil elastase [7]; 4 min", "value": 17, "unit": "%"}, {"measurement": "Activity % of Control", "setting": "Bovine α-chymotrypsin", "value": "69 % of Control"}, {"measurement": "Activity % of Control", "setting": "[8]; 0.5 min", "value": "69.1 % of Control"}, {"measurement": "Activity % of Control", "setting": "[8]; 4.0 min", "value": "21 % of Control"}]}]}
